Values after ≈ are worked out from the molar mass of the structure shown.
Legend:
JAK1 = JAK1 (Homo sapiens (Human), UniProt P23458); experiment: Biochemical JAK and Tyk2 Kinase Assays (LanthaScreen), JAK1; conditions: 25 μM ATP (Km), pIC50 converted to pKi by Cheng-Prusoff
JAK2 = JAK2 (Homo sapiens (Human), UniProt O60674); experiment: Biochemical JAK and Tyk2 Kinase Assays (LanthaScreen), JAK2; conditions: 3 μM ATP (Km); pIC50 converted to pKi by Cheng-Prusoff
JAK3 = JAK3 (Homo sapiens (Human), UniProt P52333); experiment: Biochemical JAK and Tyk2 Kinase Assays (LanthaScreen), JAK3; conditions: 1.6 μM ATP (Km), pIC50 converted to pKi by Cheng-Prusoff
Sequence of JAK3 (P52333 whole entry): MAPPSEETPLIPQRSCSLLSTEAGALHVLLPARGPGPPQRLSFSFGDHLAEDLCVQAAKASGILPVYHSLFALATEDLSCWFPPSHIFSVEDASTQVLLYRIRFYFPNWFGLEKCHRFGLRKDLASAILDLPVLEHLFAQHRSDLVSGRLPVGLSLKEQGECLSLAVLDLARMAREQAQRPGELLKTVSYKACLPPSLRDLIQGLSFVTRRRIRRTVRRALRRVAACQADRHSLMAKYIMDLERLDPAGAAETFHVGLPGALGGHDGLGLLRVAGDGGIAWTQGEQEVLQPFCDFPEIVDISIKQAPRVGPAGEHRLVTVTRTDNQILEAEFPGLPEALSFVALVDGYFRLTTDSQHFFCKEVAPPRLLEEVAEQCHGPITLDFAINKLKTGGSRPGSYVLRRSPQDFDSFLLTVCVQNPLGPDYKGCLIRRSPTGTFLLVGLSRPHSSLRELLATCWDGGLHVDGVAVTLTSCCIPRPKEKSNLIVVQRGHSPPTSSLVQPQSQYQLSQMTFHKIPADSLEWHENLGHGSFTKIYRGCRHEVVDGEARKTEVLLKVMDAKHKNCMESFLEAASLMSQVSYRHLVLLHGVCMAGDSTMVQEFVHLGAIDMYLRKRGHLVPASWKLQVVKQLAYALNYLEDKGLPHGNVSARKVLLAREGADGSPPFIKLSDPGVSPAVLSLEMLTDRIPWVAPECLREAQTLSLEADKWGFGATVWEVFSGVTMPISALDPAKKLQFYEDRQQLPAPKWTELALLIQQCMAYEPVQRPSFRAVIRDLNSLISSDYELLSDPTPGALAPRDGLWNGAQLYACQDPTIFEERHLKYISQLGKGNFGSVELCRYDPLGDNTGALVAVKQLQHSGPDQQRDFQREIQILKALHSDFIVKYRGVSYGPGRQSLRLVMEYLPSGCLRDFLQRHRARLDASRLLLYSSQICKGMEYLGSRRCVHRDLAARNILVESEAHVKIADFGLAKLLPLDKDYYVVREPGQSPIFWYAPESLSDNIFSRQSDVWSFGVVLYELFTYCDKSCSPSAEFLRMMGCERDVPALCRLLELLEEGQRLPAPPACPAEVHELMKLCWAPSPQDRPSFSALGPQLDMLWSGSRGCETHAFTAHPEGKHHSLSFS

Tyk2 = Tyk2 (Homo sapiens (Human), UniProt P29597); experiment: Biochemical JAK and Tyk2 Kinase Assays (LanthaScreen), Tyk2; conditions: 10 μM ATP (Km), pIC50 converted to pKi by Cheng-Prusoff
Sequence of Tyk2 (P29597 whole entry): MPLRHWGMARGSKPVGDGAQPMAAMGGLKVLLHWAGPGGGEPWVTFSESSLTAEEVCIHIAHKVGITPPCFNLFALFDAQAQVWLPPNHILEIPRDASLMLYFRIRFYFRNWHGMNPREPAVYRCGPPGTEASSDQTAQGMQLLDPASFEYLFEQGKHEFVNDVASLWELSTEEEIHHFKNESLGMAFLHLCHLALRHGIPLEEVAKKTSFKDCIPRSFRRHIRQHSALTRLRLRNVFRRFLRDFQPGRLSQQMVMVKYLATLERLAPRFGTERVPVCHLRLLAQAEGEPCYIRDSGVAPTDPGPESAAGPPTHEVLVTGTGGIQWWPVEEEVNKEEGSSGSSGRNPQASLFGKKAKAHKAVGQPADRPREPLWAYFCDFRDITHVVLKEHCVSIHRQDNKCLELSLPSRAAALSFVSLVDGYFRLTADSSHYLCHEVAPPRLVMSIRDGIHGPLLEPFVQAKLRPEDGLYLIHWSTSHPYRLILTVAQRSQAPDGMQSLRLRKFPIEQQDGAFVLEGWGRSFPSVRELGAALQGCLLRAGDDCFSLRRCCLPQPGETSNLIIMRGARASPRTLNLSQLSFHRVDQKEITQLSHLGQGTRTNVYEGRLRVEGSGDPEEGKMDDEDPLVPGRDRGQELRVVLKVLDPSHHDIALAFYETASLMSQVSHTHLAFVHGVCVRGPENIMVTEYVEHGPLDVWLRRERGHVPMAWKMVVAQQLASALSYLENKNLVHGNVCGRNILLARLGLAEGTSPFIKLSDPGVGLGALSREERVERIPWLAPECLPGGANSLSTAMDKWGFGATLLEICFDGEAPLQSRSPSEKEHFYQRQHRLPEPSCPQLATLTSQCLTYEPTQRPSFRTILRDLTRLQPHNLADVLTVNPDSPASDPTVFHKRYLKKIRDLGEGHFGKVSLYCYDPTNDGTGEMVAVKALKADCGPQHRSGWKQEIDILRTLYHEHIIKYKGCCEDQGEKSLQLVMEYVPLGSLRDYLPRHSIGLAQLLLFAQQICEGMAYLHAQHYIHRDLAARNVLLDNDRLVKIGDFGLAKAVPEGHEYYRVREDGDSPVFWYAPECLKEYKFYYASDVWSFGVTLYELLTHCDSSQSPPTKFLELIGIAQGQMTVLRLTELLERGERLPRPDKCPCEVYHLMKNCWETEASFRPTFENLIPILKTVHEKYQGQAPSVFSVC

[1] = system: IL-2 stimulated pSTAT5 in Tall-1 T cells; experiment: Inhibition of IL-2 Stimulated pSTAT5 in Tall-1 T Cells; type: cell-based; conditions: Tall-1 human T cell line, IL-2 300 ng/mL, AlphaLisa
Summary of the method: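 Cells preincubated with compound 1 hour at 37° C, then stimulated with IL-2 (final 300 ng/mL) for 30 minutes. After lysis, pSTAT5 (Tyr694/699) read by AlphaLISA luminescence. IC50 from inhibition curves, reported as pIC50 (mean±SD).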

physchem = conditions: thermodynamic from solid

Sequence of JAK1 (P23458 whole entry): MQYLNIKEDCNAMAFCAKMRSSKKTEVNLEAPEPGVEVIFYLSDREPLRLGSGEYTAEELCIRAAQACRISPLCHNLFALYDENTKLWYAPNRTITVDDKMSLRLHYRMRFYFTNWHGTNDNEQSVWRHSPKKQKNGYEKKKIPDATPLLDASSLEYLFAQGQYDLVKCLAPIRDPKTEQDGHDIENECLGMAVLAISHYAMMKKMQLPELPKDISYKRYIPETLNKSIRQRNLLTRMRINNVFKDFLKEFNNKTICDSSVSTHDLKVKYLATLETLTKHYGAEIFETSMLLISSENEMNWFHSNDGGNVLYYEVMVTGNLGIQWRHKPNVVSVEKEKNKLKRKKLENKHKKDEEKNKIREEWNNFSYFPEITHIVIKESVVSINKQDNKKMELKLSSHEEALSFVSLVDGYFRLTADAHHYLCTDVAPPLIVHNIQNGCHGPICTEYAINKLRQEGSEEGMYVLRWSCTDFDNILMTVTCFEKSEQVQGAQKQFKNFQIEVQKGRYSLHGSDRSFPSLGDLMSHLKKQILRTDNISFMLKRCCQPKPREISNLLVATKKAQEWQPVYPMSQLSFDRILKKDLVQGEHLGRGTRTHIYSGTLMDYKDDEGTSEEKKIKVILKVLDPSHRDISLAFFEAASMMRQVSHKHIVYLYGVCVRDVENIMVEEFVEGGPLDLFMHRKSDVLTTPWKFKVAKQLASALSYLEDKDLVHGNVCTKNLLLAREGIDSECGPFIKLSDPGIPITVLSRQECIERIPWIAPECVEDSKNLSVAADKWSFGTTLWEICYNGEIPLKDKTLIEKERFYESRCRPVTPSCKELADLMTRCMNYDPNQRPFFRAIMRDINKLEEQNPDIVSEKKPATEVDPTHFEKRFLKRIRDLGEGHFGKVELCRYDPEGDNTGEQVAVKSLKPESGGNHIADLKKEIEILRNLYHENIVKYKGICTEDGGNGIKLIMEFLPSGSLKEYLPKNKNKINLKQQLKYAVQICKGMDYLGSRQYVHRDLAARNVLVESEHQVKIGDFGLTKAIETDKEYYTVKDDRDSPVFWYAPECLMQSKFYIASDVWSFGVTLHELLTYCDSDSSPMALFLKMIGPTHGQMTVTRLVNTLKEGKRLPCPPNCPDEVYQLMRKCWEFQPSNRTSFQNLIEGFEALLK
Sequence of JAK2 (O60674 whole entry): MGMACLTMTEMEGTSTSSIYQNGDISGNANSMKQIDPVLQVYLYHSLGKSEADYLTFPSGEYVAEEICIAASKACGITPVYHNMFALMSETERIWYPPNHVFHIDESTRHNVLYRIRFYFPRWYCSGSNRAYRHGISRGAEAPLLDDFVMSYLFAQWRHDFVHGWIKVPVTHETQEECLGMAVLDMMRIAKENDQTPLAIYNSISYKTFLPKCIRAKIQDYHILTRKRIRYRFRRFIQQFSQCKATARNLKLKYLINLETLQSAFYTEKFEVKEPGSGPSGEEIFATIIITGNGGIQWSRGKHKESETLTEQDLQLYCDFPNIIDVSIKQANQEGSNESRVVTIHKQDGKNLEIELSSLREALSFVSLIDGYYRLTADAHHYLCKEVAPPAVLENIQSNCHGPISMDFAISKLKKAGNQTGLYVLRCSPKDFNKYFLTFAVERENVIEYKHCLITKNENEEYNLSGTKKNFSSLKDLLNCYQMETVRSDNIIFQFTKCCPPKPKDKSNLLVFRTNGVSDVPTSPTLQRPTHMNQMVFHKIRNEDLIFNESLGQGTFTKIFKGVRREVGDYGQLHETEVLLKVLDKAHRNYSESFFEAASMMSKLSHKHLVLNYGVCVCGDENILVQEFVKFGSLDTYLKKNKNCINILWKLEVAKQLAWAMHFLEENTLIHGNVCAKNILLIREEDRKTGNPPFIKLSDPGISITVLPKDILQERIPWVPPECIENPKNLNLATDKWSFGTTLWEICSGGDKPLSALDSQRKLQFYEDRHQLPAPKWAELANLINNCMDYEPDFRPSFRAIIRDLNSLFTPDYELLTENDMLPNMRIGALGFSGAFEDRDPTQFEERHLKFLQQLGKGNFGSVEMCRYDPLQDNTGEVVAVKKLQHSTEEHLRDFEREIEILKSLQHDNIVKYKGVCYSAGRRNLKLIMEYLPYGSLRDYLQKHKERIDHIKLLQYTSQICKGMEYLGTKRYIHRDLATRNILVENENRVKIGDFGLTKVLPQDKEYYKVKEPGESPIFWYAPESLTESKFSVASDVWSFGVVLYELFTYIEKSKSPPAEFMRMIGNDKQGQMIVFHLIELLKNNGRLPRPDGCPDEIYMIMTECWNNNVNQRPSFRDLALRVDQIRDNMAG

Row | Compound | JAK 1 (pKi) (JAK1) | JAK 2 (pKi) (JAK2) | JAK 3 (pKi) (JAK3) | Tyk 2 (pKi) (Tyk2) | Tall-1 IL2 pSTAT5 (pIC50) [1] | Ki (JAK1; read-out: JAK 1 (pKi) (converted)) [nM] | Ki (JAK3; read-out: JAK 3 (pKi) (converted)) [nM] | Ki (Tyk2; read-out: Tyk 2 (pKi) (converted)) [nM] | IC50 ([1]; read-out: Tall-1 IL2 pSTAT5 (pIC50) (converted)) [nM] | solubility at 4 h (physchem; oil or lipid, Solubility in MCT (mg/mL)) [µg/mL] | solubility at 4 h (physchem; organic solvent or mixture, Solubility in Diisopropyl adipate (mg/mL)) [µg/mL] | solubility at 4 h (physchem; organic solvent or mixture, Solubility in PEG400 (mg/mL)) [µg/mL] | solubility at 4 h (physchem; organic solvent or mixture, Solubility in Propylene glycol (mg/mL)) [µg/mL]
1 | CCS(=O)(=O)N1[C@@H]2CCC[C@H]1C[C@H](N(C)c1nc(Nc3cc(C)[nH]n3)cc(C3CCCO3)n1)C2 (stereo partly drawn) [Compound 8, N^2-((1R,3s,5S)-9-(ethylsulfonyl)-9-azabicyclo[3.3.1]nonan-3-yl)-N2-methyl-N4-(5-methyl-1H-pyrazol-3-yl)-6-(tetrahydrofuran-2-yl)pyrimidine-2,4-diamine] | A (A represents a pKi value ≥10 (Ki≤0.1 nM)) | A (A represents a pKi value ≥10 (Ki≤0.1 nM)) | B (B represents a pKi value between 9 and 10 (Ki between 1 nM and 0.1 nM)) | A (A represents a pKi value ≥10 (Ki≤0.1 nM)) | A (A represents a pIC50 value ≥8.0) | – | – | – | – | – | – | – | –
2 | COC(=O)N1[C@@H]2CCC[C@H]1C[C@H](N(C)c1nc(Nc3cc(C)[nH]n3)cc(O[C@@H]3CCOC3)n1)C2 [Compound 23] | – | A (A represents a pKi value ≥10 (Ki≤0.1 nM)) | – | – | – | 0.1 to 1 | 0.1 to 1 | 0.1 to 1 | 10 to 31.6 | 5000 to 10000 (≈ 10.6 to 21.2 mM) | > 10000 | 5000 to 10000 (≈ 10.6 to 21.2 mM) | > 10000
3 | CCS(=O)(=O)N1[C@@H]2CCC[C@H]1C[C@H](N(C)c1nc(COC3COC3)c(F)c(Nc3cc(C)[nH]n3)n1)C2 [Compound 41, N2-((1R,3s,5S)-9-(ethylsulfonyl)-9-azabicyclo[3.3.1]nonan-3-yl)-5-fluoro-N2-methyl-N4-(5-methyl-1H-pyrazol-3-yl)-6-((oxetan-3-yloxy)methyl)pyrimidine-2,4-diamine] | A (A represents a pKi value ≥10 (Ki≤0.1 nM)) | A (A represents a pKi value ≥10 (Ki≤0.1 nM)) | B (B represents a pKi value between 9 and 10 (Ki between 1 nM and 0.1 nM)) | A (A represents a pKi value ≥10 (Ki≤0.1 nM)) | A (A represents a pIC50 value ≥8.0) | – | – | – | – | – | – | – | –
4 | CCS(=O)(=O)N1[C@@H]2CCC[C@H]1C[C@H](N(C)c1nc(CO[C@H]3CCOC3)c(F)c(Nc3cc(C)[nH]n3)n1)C2 [Compound 42, N2-((1R,3s,5S)-9-(ethylsulfonyl)-9-azabicyclo[3.3.1]nonan-3-yl)-5-fluoro-N2-methyl-N4-(5-methyl-1H-pyrazol-3-yl)-6-((((S)-tetrahydrofuran-3-yl)oxy)methyl)pyrimidine-2,4-diamine] | B (B represents a pKi value between 9 and 10 (Ki between 1 nM and 0.1 nM)) | A (A represents a pKi value ≥10 (Ki≤0.1 nM)) | B (B represents a pKi value between 9 and 10 (Ki between 1 nM and 0.1 nM)) | A (A represents a pKi value ≥10 (Ki≤0.1 nM)) | A (A represents a pIC50 value ≥8.0) | – | – | – | – | – | – | – | –
5 | CCS(=O)(=O)N1[C@@H]2CCC[C@H]1C[C@H](N(C)c1nc(CO[C@@H]3CCOC3)c(F)c(Nc3cc(C)[nH]n3)n1)C2 [Compound 43, N2-((1R,3s,5S)-9-(ethylsulfonyl)-9-azabicyclo[3.3.1]nonan-3-yl)-5-fluoro-N2-methyl-N4-(5-methyl-1H-pyrazol-3-yl)-6-((((R)-tetrahydrofuran-3-yl)oxy)methyl)pyrimidine-2,4-diamine] | B (B represents a pKi value between 9 and 10 (Ki between 1 nM and 0.1 nM)) | A (A represents a pKi value ≥10 (Ki≤0.1 nM)) | B (B represents a pKi value between 9 and 10 (Ki between 1 nM and 0.1 nM)) | A (A represents a pKi value ≥10 (Ki≤0.1 nM)) | A (A represents a pIC50 value ≥8.0) | – | – | – | – | – | – | – | –

Reference: patent publication US11439641B2, “Pyrimidine JAK inhibitors for the treatment of skin diseases” (THERAVANCE BIOPHARMA R&D IP, LLC, priority 2019, dated 2022)
